Data taken from PubChem BioAssay AID1259407 (Chemical Carcinogenesis Research Information System (CCRIS), 2018).
Activity calls are given as the source filed them. How the calls were made is not given here.

System: CCRIS mutagenicity, Ames/micronucleus/aberration tests
Assay: CCRIS mutagenicity studies

CCN(CC)c1ccccc1
mutagenic call (Test System: AMES SALMONELLA TYPHIMURIUM, Strain/Indicator: TA97, Metabolic Activation: HAMSTER, LIVER, S-9, AROCLOR 1254 (10 OR 30%), Method: PREINCUBATION): inactive; negative
mutagenic call (Test System: AMES SALMONELLA TYPHIMURIUM, Strain/Indicator: TA97, Metabolic Activation: NONE, Method: PREINCUBATION): inactive; negative
mutagenic call (Test System: AMES SALMONELLA TYPHIMURIUM, Strain/Indicator: TA97, Metabolic Activation: RAT, LIVER, S-9, AROCLOR 1254 (10 OR 30%), Method: PREINCUBATION): inactive; negative
mutagenic call (Test System: AMES SALMONELLA TYPHIMURIUM, Strain/Indicator: TA98, Metabolic Activation: HAMSTER, LIVER, S-9, AROCLOR 1254 (10 OR 30%), Method: PREINCUBATION): inactive; negative
mutagenic call (Test System: AMES SALMONELLA TYPHIMURIUM, Strain/Indicator: TA98, Metabolic Activation: HAMSTER, LIVER, S-9, PHENOBARBITAL AND BETA-NAPHTHOFLAVONE, Method: PREINCUBATION): inactive; negative
mutagenic call (Test System: AMES SALMONELLA TYPHIMURIUM, Strain/Indicator: TA98, Metabolic Activation: NONE, Method: PREINCUBATION): inactive; negative
mutagenic call (Test System: AMES SALMONELLA TYPHIMURIUM, Strain/Indicator: TA98, Metabolic Activation: RAT, LIVER, S-9, AROCLOR 1254 (10 OR 30%), Method: PREINCUBATION): inactive; negative
mutagenic call (Test System: AMES SALMONELLA TYPHIMURIUM, Strain/Indicator: TA100, Metabolic Activation: HAMSTER, LIVER, S-9, AROCLOR 1254 (10 OR 30%), Method: PREINCUBATION): inactive; negative
mutagenic call (Test System: AMES SALMONELLA TYPHIMURIUM, Strain/Indicator: TA100, Metabolic Activation: HAMSTER, LIVER, S-9, PHENOBARBITAL AND BETA-NAPHTHOFLAVONE, Method: PREINCUBATION): inactive; negative
mutagenic call (Test System: AMES SALMONELLA TYPHIMURIUM, Strain/Indicator: TA100, Metabolic Activation: NONE, Method: PREINCUBATION): inactive; negative
mutagenic call (Test System: AMES SALMONELLA TYPHIMURIUM, Strain/Indicator: TA100, Metabolic Activation: RAT, LIVER, S-9, AROCLOR 1254 (10 OR 30%), Method: PREINCUBATION): inactive; negative
mutagenic call (Test System: AMES SALMONELLA TYPHIMURIUM, Strain/Indicator: TA102, Metabolic Activation: HAMSTER, LIVER, S-9, PHENOBARBITAL AND BETA-NAPHTHOFLAVONE, Method: PREINCUBATION): inactive; negative
mutagenic call (Test System: AMES SALMONELLA TYPHIMURIUM, Strain/Indicator: TA102, Metabolic Activation: NONE, Method: PREINCUBATION): inactive; negative
mutagenic call (Test System: AMES SALMONELLA TYPHIMURIUM, Strain/Indicator: TA104, Metabolic Activation: HAMSTER, LIVER, S-9, PHENOBARBITAL AND BETA-NAPHTHOFLAVONE, Method: PREINCUBATION): inactive; negative
mutagenic call (Test System: AMES SALMONELLA TYPHIMURIUM, Strain/Indicator: TA104, Metabolic Activation: NONE, Method: PREINCUBATION): inactive; negative
mutagenic call (Test System: AMES SALMONELLA TYPHIMURIUM, Strain/Indicator: TA1535, Metabolic Activation: HAMSTER, LIVER, S-9, AROCLOR 1254 (10 OR 30%), Method: PREINCUBATION): inactive; negative
mutagenic call (Test System: AMES SALMONELLA TYPHIMURIUM, Strain/Indicator: TA1535, Metabolic Activation: HAMSTER, LIVER, S-9, PHENOBARBITAL AND BETA-NAPHTHOFLAVONE, Method: PREINCUBATION): inactive; negative
mutagenic call (Test System: AMES SALMONELLA TYPHIMURIUM, Strain/Indicator: TA1535, Metabolic Activation: NONE, Method: PREINCUBATION): inactive; negative
mutagenic call (Test System: AMES SALMONELLA TYPHIMURIUM, Strain/Indicator: TA1535, Metabolic Activation: RAT, LIVER, S-9, AROCLOR 1254 (10 OR 30%), Method: PREINCUBATION): inactive; negative
mutagenic call (Test System: AMES SALMONELLA TYPHIMURIUM, Strain/Indicator: TA1537, Metabolic Activation: HAMSTER, LIVER, S-9, PHENOBARBITAL AND BETA-NAPHTHOFLAVONE, Method: PREINCUBATION): inactive; negative
mutagenic call (Test System: AMES SALMONELLA TYPHIMURIUM, Strain/Indicator: TA1537, Metabolic Activation: NONE, Method: PREINCUBATION): inactive; negative
mutagenic call (Test System: E. COLI, Strain/Indicator: WP2UVRA/PKM101, Metabolic Activation: HAMSTER, LIVER, S-9, PHENOBARBITAL AND BETA-NAPHTHOFLAVONE, Method: PREINCUBATION): inactive; negative
mutagenic call (Test System: E. COLI, Strain/Indicator: WP2UVRA/PKM101, Metabolic Activation: NONE, Method: PREINCUBATION): inactive; negative
mutagenic call (Test System: E. COLI, Strain/Indicator: WP2UVRA, Metabolic Activation: HAMSTER, LIVER, S-9, PHENOBARBITAL AND BETA-NAPHTHOFLAVONE, Method: PREINCUBATION): inactive; negative
mutagenic call (Test System: E. COLI, Strain/Indicator: WP2UVRA, Metabolic Activation: NONE, Method: PREINCUBATION): inactive; negative
mutagenic call (Test System: UDS RODENT HEPATOCYTES, Strain/Indicator: THY INCORP (NON-S-PHASE), Metabolic Activation: NONE, Method: AUTORADIOGRAPHY): inactive; negative

CN(CCCCO)N=O
mutagenic call (Test System: AMES SALMONELLA TYPHIMURIUM, Strain/Indicator: TA1535, Metabolic Activation: RAT, LIVER, S-9, KC500 OR PHENOBARBITAL, Method: LIQUID SUSPENSION): active; positive

O=[N+]([O-])c1ccc2cccc3c2c1C=C3
mutagenic call (Test System: AMES SALMONELLA TYPHIMURIUM, Strain/Indicator: TA98, Metabolic Activation: NONE, Method: STANDARD PLATE): active; positive
